Experimental data reported in PubChem BioAssay (NCI).
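Cells were grown in 96-well plates and exposed to each compound for 48 hours at five concentrations; endpoints were interpolated linearly between bracketing concentrations, or set to the highest concentration if not reached. At the GI50, growth is halved. TGI is the concentration that stops growth completely.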

Columns and labels:
Assay in all cases: NCI-60 cell line screen, 48 h
[1] = tested on: K-562 leukemia
[2] = tested on: NCI-H522 lung
[3] = tested on: BT-549 breast
[4] = tested on: HL-60(TB) leukemia
[5] = tested on: SW-620 colon
[6] = tested on: HCC-2998 colon
[7] = tested on: TK-10 renal
[8] = tested on: ACHN renal
[9] = tested on: SN12C renal
[10] = tested on: MOLT-4 leukemia
[11] = tested on: OVCAR-3 ovarian
[12] = tested on: 786-0 renal
[13] = tested on: DU-145 prostate
[14] = tested on: SF-539 CNS
[15] = tested on: OVCAR-8 ovarian
[16] = tested on: MDA-MB-231 breast
[17] = tested on: CCRF-CEM leukemia
[18] = tested on: IGROV1 ovarian
[19] = tested on: OVCAR-4 ovarian
[20] = tested on: U251 CNS
[21] = tested on: RPMI-8226 leukemia
[22] = tested on: UO-31 renal
[23] = tested on: NCI-H23 lung
[24] = tested on: KM12 colon
[25] = tested on: NCI/ADR-RES ovarian
[26] = tested on: SNB-19 CNS
[27] = tested on: HT29 colon
[28] = tested on: HOP-92 NSCLC
[29] = tested on: COLO 205 colon
[30] = tested on: HCT-15 colon
[31] = tested on: RXF 393 renal
[32] = tested on: SK-MEL-2 melanoma
[33] = tested on: MCF7 breast
[34] = tested on: SNB-75 CNS
[35] = tested on: SF-268 CNS
[36] = tested on: HCT-116 colon
[37] = tested on: UACC-62 melanoma
[38] = tested on: CAKI-1 renal
[39] = tested on: UACC-257 melanoma
[40] = tested on: OVCAR-5 ovarian
[41] = tested on: SK-MEL-28 melanoma
[42] = tested on: SK-MEL-5 melanoma
[43] = tested on: SF-295 CNS
[44] = tested on: M14 melanoma
[45] = tested on: A498 renal
[46] = tested on: A549 NSCLC
[47] = tested on: PC-3 prostate
[48] = tested on: HS 578T breast
[49] = tested on: NCI-H226 lung
[50] = tested on: HOP-62 NSCLC
[51] = tested on: MDA-MB-435
[52] = tested on: EKVX NSCLC
[53] = tested on: NCI-H460 lung
[54] = tested on: T-47D breast
[55] = tested on: MALME-3M melanoma
[56] = tested on: LOX IMVI melanoma

COCCOc1cc(F)c2c(Nc3ccc(NC(=O)Cn4cc(C(C)C)nn4)cc3)ncnc2c1
GI50 [1]: 10.2 µM | TGI [1]: > 100 µM | GI50 [2]: 35.5 µM | TGI [2]: > 100 µM | GI50 [3]: 33.6 µM | TGI [3]: > 100 µM | GI50 [4]: > 100 µM | TGI [4]: > 100 µM | GI50 [5]: > 100 µM | TGI [5]: > 100 µM | GI50 [6]: > 100 µM | TGI [6]: > 100 µM | GI50 [7]: > 100 µM | TGI [7]: > 100 µM | GI50 [8]: 51.5 µM | TGI [8]: > 100 µM | GI50 [9]: 71.6 µM | TGI [9]: > 100 µM | GI50 [10]: > 100 µM | TGI [10]: > 100 µM | GI50 [11]: > 100 µM | TGI [11]: > 100 µM | GI50 [12]: 39.1 µM | TGI [12]: > 100 µM | GI50 [13]: > 100 µM | TGI [13]: > 100 µM | GI50 [14]: 6.41 µM | TGI [14]: > 100 µM | GI50 [15]: 37.4 µM | TGI [15]: > 100 µM | GI50 [16]: 41.6 µM | TGI [16]: > 100 µM | GI50 [17]: > 100 µM | TGI [17]: > 100 µM | GI50 [18]: > 100 µM | TGI [18]: > 100 µM | GI50 [19]: 19.2 µM | TGI [19]: > 100 µM | GI50 [20]: 37.4 µM | TGI [20]: > 100 µM | GI50 [21]: > 100 µM | TGI [21]: > 100 µM | GI50 [22]: > 100 µM | TGI [22]: > 100 µM | GI50 [23]: > 100 µM | TGI [23]: > 100 µM | GI50 [24]: 1.16 µM | TGI [24]: > 100 µM | GI50 [25]: > 100 µM | TGI [25]: > 100 µM | GI50 [26]: 41 µM | TGI [26]: > 100 µM | GI50 [27]: > 100 µM | TGI [27]: > 100 µM | GI50 [28]: 5.99 µM | TGI [28]: 92 µM | GI50 [29]: > 100 µM | TGI [29]: > 100 µM | GI50 [30]: > 100 µM | TGI [30]: > 100 µM | GI50 [31]: 10.2 µM | TGI [31]: > 100 µM | GI50 [32]: 44.7 µM | TGI [32]: > 100 µM | GI50 [33]: > 100 µM | TGI [33]: > 100 µM | GI50 [34]: 28.2 µM | TGI [34]: > 100 µM | GI50 [35]: 37.5 µM | TGI [35]: > 100 µM | GI50 [36]: 57.9 µM | TGI [36]: > 100 µM | GI50 [37]: 85.4 µM | TGI [37]: > 100 µM | GI50 [38]: > 100 µM | TGI [38]: > 100 µM | GI50 [39]: > 100 µM | TGI [39]: > 100 µM | GI50 [40]: > 100 µM | TGI [40]: > 100 µM | GI50 [41]: > 100 µM | TGI [41]: > 100 µM | GI50 [42]: 24.3 µM | TGI [42]: > 100 µM | GI50 [43]: 53.5 µM | TGI [43]: > 100 µM | GI50 [44]: > 100 µM | TGI [44]: > 100 µM | GI50 [45]: > 100 µM | TGI [45]: > 100 µM | GI50 [46]: > 100 µM | TGI [46]: > 100 µM | GI50 [47]: > 100 µM | TGI [47]: > 100 µM | GI50 [48]: 16.5 µM | TGI [48]: > 100 µM | GI50 [49]: 60.8 µM | TGI [49]: > 100 µM | GI50 [50]: 22.2 µM | TGI [50]: > 100 µM | GI50 [51]: > 100 µM | TGI [51]: > 100 µM | GI50 [52]: > 100 µM | TGI [52]: > 100 µM | GI50 [53]: 51.3 µM | TGI [53]: > 100 µM | GI50 [54]: 8.11 µM | TGI [54]: > 100 µM | GI50 [55]: 79.6 µM | TGI [55]: > 100 µM | GI50 [56]: > 100 µM | TGI [56]: > 100 µM
